Data taken from patent EP4700040A1, “PEPTIDE AND LUMINESCENT COMPLEX CONTAINING SAME” (Shenzhen Loggene Life Science & Technology Co., Ltd., priority 2023, dated 2024).

Columns and labels:
Type in all cases: biochemical, human
PCT [1] = test: Complementary activity of small subunits mutated at conserved positions, Furimazine substrate (Example 6); conditions: MBP-PCT 3.3 ng/ml, supernatant; for activity (luminescence signal value), 3 min: 3 min after Furimazine 25 µM; for activity (luminescence signal value), 6 min: 6 min after Furimazine 25 µM
Protocol: Detection Methods: • (1) The concentration of large subunit-rSCFV5 fusion protein was diluted to 12.5 nM, and 15 µl was added per well; • (2) MBP-PCT fusion protein was diluted to 3.3 ng/ml with PBSAD, and 10 µl was added per well; • (3) HB2151 strain containing plasmids with different small subunit sequences were induced by IPTG at 30°C overnight, then treated with polymyxin B for 1.5h, and centrifuged to collect the supernatant, and 2.5µl supernatant was added per well; • (4) The above three components were slightly mixed, incubated at 37°C for 7 min, and Obuffer 6.37-3 containing Furimazine at a concentration of 25 µM was added, […], the luminescence signal value was detected using a bioluminescence detector; and • (5) Clones with RLU higher than 10,000 were picked. The substrate was replaced with CTZ-h substrate for retesting (Obuffer 6.37-3 containing CTZ-h at a concentration of 25 µM was added, and after 60 s, the luminescence signal value was detected using a bioluminescence detector), and a PBSAD control was added to test the signal-to-noise ratio.
In order to further determine whether these three conserved amino acid sequences were changed, this example constructed a random mutation library of these three positions, with a theoretical diversity of 8,000 and a library capacity of 10^6, and 2,000 single clones were picked. The method of protein induction and expression was the same as that in Example 1. The complementary activity was tested in the same manner as that in Example 4, but the signal-to-noise ratio was not retested with CTZ-h. Clones with different activity were randomly picked for sequencing.

PCT [2] = test: Luciferase dual-antibody complementary activation assay for PCT detection, clone supernatants, retest with CTZ-h (Example 1); conditions: for Signal-to-noise ratio: RLU antigen+/RLU antigen-, MBP-PCT 3.3 ng/ml, CTZ-h; for PCT+: luminescence signal value with MBP-PCT 3.3 ng/ml, large subunit-rSCFV5 50 nM, supernatant; for PCT+ / PCT-: retest CTZ-h 25 µM, read after 60 s; for PCT-: luminescence signal value, background control PBSAD without PCT
Protocol: In order to improve the signal-to-noise ratio and complementary activity of the luciferase dual-antibody complementary activation assay, a series of complementary luciferase small subunits were prepared in this example. Large subunit-rSCFV5 fusion protein (SEQ ID NO: 87) was kept unchanged, and the small subunit sequence of the rSCFV18-small subunit P114 fusion protein (SEQ ID NO: 88) was modified by semi-randomization to prepare rSCFV18-small subunit mutant fusion proteins. Based on the sequence of small subunit P114, and with reference to the 3D structure of complementary luciferase, computer-aided sequence design was employed to generate a library with a theoretical diversity of 2.49*10^6. Primers were designed for PCR amplification using the plasmid pComb3x of rSCFV18-small subunit P114 fusion protein as a template. Subsequently, an expression vector library was constructed by means of restriction digestion and ligation (SfiI, NheI), and a semi-random amino acid mutation library was introduced into the small subunit position and transformed into HB2151 competent cells, yielding a library capacity of 7.6*10^9. The 100 plates were spread, and 9,500 single clones were picked and inoculated into 600 µL of 2YTA medium, followed by incubation at 37°C with shaking at 250 rpm for 2 h. When the bacterial density reached approximately OD600 = 0.6~1.0, IPTG was then added to a final concentration of 1 mM, and the culture was further incubated at 30°C with shaking at 250 rpm for 20 h. The next day, the bacteria were collected by centrifugation at 4°C, 4,500g for 10min. The supernatant was discarded, and the precipitate was resuspended with 200µl of PBS containing polymyxin B at a final concentration of 20,000 u/ml. The suspension was incubated at room temperature with shaking at 100rpm for 1h, and then centrifuged at 4500g for 10min, and the supernatant was used for the test.
Test Methods: • (1) The concentration of large subunit-rSCFV5 fusion protein was diluted to 50 nM, and 15 µl was added per well; • (2) MBP-PCT fusion protein was diluted to 3.3 ng/ml with PBSAD, and 15 µl was added per well. The background control was PBSAD, and 10 µl was added per well; • (3) HB2151 strain containing expression plasmids with different small subunit were induced by 1 mM of IPTG at 30°C overnight, then treated with polymyxin B for 1.5 h, and centrifuged to collect the supernatant, and 2.5 µl supernatant was added per well; • (4) The above three components were slightly mixed, incubated at 37°C for 7 min, and Obuffer 6.37-3 containing Furimazine at a concentration of 25 µM was added, and after 80 s, the luminescence signal value was detected using a bioluminescence detector; and • (5) Clones with RLU higher than 10,000 and a signal-to-noise ratio (RLU antigen+/RLU antigen-) higher than that of the rSCFV18-small subunit P114 fusion protein were selected for retesting. The substrate was replaced with CTZ-h for retesting. Obuffer 6.37-3 containing CTZ-h at a concentration of 25 µM was added, and after 60 s, the luminescence signal value was detected using a bioluminescence detector.

PCT [3] = test: Second library screening for PCT detection, clone supernatants, retest with CTZ-h (Example 4)
Protocol: In order to further improve the signal-to-noise ratio and complementary activity of the luciferase dual-antibody complementary activation assay, novel complementary luciferase small subunits were prepared in this example. Large subunit-rSCFV5 fusion protein (SEQ ID NO: 87) was kept unchanged, and the small subunit sequence of the rSCFV18-RB073 fusion protein (SEQ ID NO: 89) were modified by semi-randomization. The theoretical diversity was 6912, the library capacity was 10^6, and 3,000 single clones were picked. The method of protein induction and expression was the same as that in Example 2.
Detection Methods: • (1) The concentration of large subunit-rSCFV5 fusion protein was diluted to 12.5 nM, and 15 µl was added per well; • (2) MBP-PCT fusion protein was diluted to 3.3 ng/ml with PBSAD, and 10 µl was added per well; • (3) HB2151 strain containing plasmids with different small subunit sequences were induced by IPTG at 30°C overnight, then treated with polymyxin B for 1.5h, and centrifuged to collect the supernatant, and 2.5µl supernatant was added per well; • (4) The above three components were slightly mixed, incubated at 37°C for 7 min, and Obuffer 6.37-3 containing Furimazine at a concentration of 25 µM was added, and after 3 min, the luminescence signal value was detected using a bioluminescence detector; and • (5) Clones with RLU higher than 10,000 were picked. The substrate was replaced with CTZ-h substrate for retesting (Obuffer 6.37-3 containing CTZ-h at a concentration of 25 µM was added, and after 60 s, the luminescence signal value was detected using a bioluminescence detector), and a PBSAD control was added to test the signal-to-noise ratio.

PCT [4] = test: Sensitivity and linear range for PCT detection of preferred small subunits (Example 5); conditions: for luminescence value: normalized
Protocol: Detection Methods: • (1) The concentration of large subunit-rSCFV5 fusion protein was diluted with PBSA to 8.3~25nM, and 15µl was added per well; • (2) MBP-PCT fusion proteins were diluted with PBSAD in a downward gradient starting from 2.5 µg/ml, and 10 µl was added per well; • (3) The rSCFV18-small subunit mutant-containing fusion protein was diluted with PBSA to 30~180 nM, and 15 µl was added per well; • (4) The above three components were slightly mixed, incubated at 37°C for 15 min, and Obuffer 6.37-3 containing CTZ-h at a concentration of 15 µM was added, and the luminescence signal value was immediately detected using a bioluminescence detector (the luminescence value was normalized);

AEGYRLFDRKS [RD-086]
activity (luminescence signal value), 3 min (PCT [1]): 3394
activity (luminescence signal value), 6 min (PCT [1]): 3222

VEGYRLFERKW [RB276]
Signal-to-noise ratio (PCT [2]): 35
PCT+ (PCT [2]): 44654
PCT- (PCT [2]): 1242

VEGYRLFNEKS [RB195]
Signal-to-noise ratio (PCT [2]): 30.8
PCT+ (PCT [2]): 41519
PCT- (PCT [2]): 1307

VEGYRLFERVL [RB150]
Signal-to-noise ratio (PCT [2]): 32.1
PCT+ (PCT [2]): 53945
PCT- (PCT [2]): 1630

AEGYHLFRSKS [RD-108]
activity (luminescence signal value), 3 min (PCT [1]): 50
activity (luminescence signal value), 6 min (PCT [1]): 53

AESYKLFDRKS [RD-100]
activity (luminescence signal value), 3 min (PCT [1]): 44
activity (luminescence signal value), 6 min (PCT [1]): 214

VEGYRLFERKL [RB157]
Signal-to-noise ratio (PCT [2]): 25.2
PCT+ (PCT [2]): 74319
PCT- (PCT [2]): 2837

VEGYRLFDRKL [RB212]
Signal-to-noise ratio (PCT [2]): 33.6
PCT+ (PCT [2]): 33103
PCT- (PCT [2]): 957

VEGYRLFDRVW [RB128]
Signal-to-noise ratio (PCT [2]): 38.8
PCT+ (PCT [2]): 26168
PCT- (PCT [2]): 658

VEGYRLFERKS [RB097]
Signal-to-noise ratio (PCT [2]): 21
PCT+ (PCT [2]): 95553
PCT- (PCT [2]): 4346

VEGYHLFDRKS [RD-103]
activity (luminescence signal value), 3 min (PCT [1]): 211
activity (luminescence signal value), 6 min (PCT [1]): 204

VEPYKLFDRKS [RD-104]
activity (luminescence signal value), 3 min (PCT [1]): 215
activity (luminescence signal value), 6 min (PCT [1]): 222

AEPYRIFDRKS [RD-099]
activity (luminescence signal value), 3 min (PCT [1]): 221
activity (luminescence signal value), 6 min (PCT [1]): 52

VEGYRLFNRKS [RB252]
Signal-to-noise ratio (PCT [2]): 20.3
PCT+ (PCT [2]): 70963
PCT- (PCT [2]): 3324

VEGYRLHEKIS [RA128]
Signal-to-noise ratio (PCT [2]): 45.2
PCT+ (PCT [2]): 17891
PCT- (PCT [2]): 387

VEGYRLFDRKL [RB209]
Signal-to-noise ratio (PCT [2]): 33.6
PCT+ (PCT [2]): 37398
PCT- (PCT [2]): 1080

IEGYRLFDRKS [RD-084]
activity (luminescence signal value), 3 min (PCT [1]): 2497
activity (luminescence signal value), 6 min (PCT [1]): 2394

VEGYRLFERKW [RB035]
Signal-to-noise ratio (PCT [2]): 31.6
PCT+ (PCT [2]): 58318
PCT- (PCT [2]): 1790

VEGYRLFKREL [RB152]
Signal-to-noise ratio (PCT [2]): 40
PCT+ (PCT [2]): 37150
PCT- (PCT [2]): 906

VEGYRLFNRKS [RB075]
Signal-to-noise ratio (PCT [2]): 27.1
PCT+ (PCT [2]): 76733
PCT- (PCT [2]): 2735

AEGYRLFDRKS [RD-012]
activity (luminescence signal value), 3 min (PCT [1]): 3586
activity (luminescence signal value), 6 min (PCT [1]): 2963

VEGYRLFDRKW [RB186]
Signal-to-noise ratio (PCT [2]): 45.1
PCT+ (PCT [2]): 27190
PCT- (PCT [2]): 590

VEGYRLFNRVS [RB027]
Signal-to-noise ratio (PCT [2]): 22.6
PCT+ (PCT [2]): 101765
PCT- (PCT [2]): 4316

IEGYRLFDRKS [RD-092]
activity (luminescence signal value), 3 min (PCT [1]): 4905
activity (luminescence signal value), 6 min (PCT [1]): 4539

VEGYRLFERKS [RB033]
Signal-to-noise ratio (PCT [2]): 25.7
PCT+ (PCT [2]): 109352
PCT- (PCT [2]): 4101

AEGYRLFDRKS [RD-045]
activity (luminescence signal value), 3 min (PCT [1]): 2398
activity (luminescence signal value), 6 min (PCT [1]): 2087

VEGYRLFEKKL [RB149]
Signal-to-noise ratio (PCT [2]): 21
PCT+ (PCT [2]): 79060
PCT- (PCT [2]): 3587

VEGYRLFNRKW [RB223]
Signal-to-noise ratio (PCT [2]): 34.7
PCT+ (PCT [2]): 39231
PCT- (PCT [2]): 1099

VEGYRLFERIW [RB240]
Signal-to-noise ratio (PCT [2]): 35.3
PCT+ (PCT [2]): 50183
PCT- (PCT [2]): 1384

VEPYKLFDRKS [RD-098]
activity (luminescence signal value), 3 min (PCT [1]): 214
activity (luminescence signal value), 6 min (PCT [1]): 49

VEGYRIFEKKW [RC-286]
Signal-to-noise ratio (PCT [3]; PCT+/PCT-, MBP-PCT 3.3 ng/ml, CTZ-h): 11.4
PCT+ (PCT [3]; luminescence signal value with MBP-PCT 3.3 ng/ml, large subunit-rSCFV5 12.5 nM, CTZ-h 25 µM, 60 s): 5003
PCT- (PCT [3]; luminescence signal value, PBSAD control without PCT, large subunit-rSCFV5 12.5 nM, CTZ-h 25 µM, 60 s): 438
luminescence value (PCT [4]; PCT 0.0, background): 5000
luminescence value (PCT [4]; PCT 1 (pg/ml)): 4670
luminescence value (PCT [4]; PCT 3 (pg/ml)): 4645
luminescence value (PCT [4]; PCT 10 (pg/ml)): 4833
luminescence value (PCT [4]; PCT 30 (pg/ml)): 5406
luminescence value (PCT [4]; PCT 100 (pg/ml)): 6696
luminescence value (PCT [4]; PCT 1000 (pg/ml)): 27596
luminescence value (PCT [4]; PCT 10000 (pg/ml)): 236023
luminescence value (PCT [4]; PCT 100000 (pg/ml)): 1443932
luminescence value (PCT [4]; PCT 250000 (pg/ml)): 2007480
Signal-to-noise ratio at 1000 pg/ml (PCT [4]; large subunit 8.3~25 nM, small subunit fusion 30~180 nM, CTZ-h 15 µM): 5.5

VEGYRLFNKKS [RB054]
Signal-to-noise ratio (PCT [2]): 25.7
PCT+ (PCT [2]): 92160
PCT- (PCT [2]): 3449

VEGYRLFNRVG [RB122]
Signal-to-noise ratio (PCT [2]): 20.2
PCT+ (PCT [2]): 55355
PCT- (PCT [2]): 2605

VEGYRLFEKVW [RB172]
Signal-to-noise ratio (PCT [2]): 36.9
PCT+ (PCT [2]): 41446
PCT- (PCT [2]): 1094

VEGYRLFERIW [RB113]
Signal-to-noise ratio (PCT [2]): 31.3
PCT+ (PCT [2]): 57092
PCT- (PCT [2]): 1769
